Source: PMC5218480 (PLoS ONE, 2017)

Tested on: MV-4-11 cells
Assay: Gene expression microarray analysis (Affymetrix PrimeView) and GSEA
Format: cell-based, human
Design: RFU PODN (11730768_x_at) / Fold change /veh PODN (11730768_x_at) / RFU LINC00158 (11744669_a_at) / Fold change /veh LINC00158 (11744669_a_at) / RFU DUSP10 (11751237_a_at) / Fold change /veh DUSP10 (11751237_a_at) / RFU ID3 (11757404_x_at) / Fold change /veh ID3 (11757404_x_at) / RFU PLEKHG5 (11737974_s_at) / Fold change /veh PLEKHG5 (11737974_s_at) / RFU LRRC4B (11730491_at) / Fold change /veh LRRC4B (11730491_at) / RFU GIMAP4 (11747438_a_at) / Fold change /veh GIMAP4 (11747438_a_at) / RFU KRT8 (11758183_x_at) / Fold change /veh KRT8 (11758183_x_at) / RFU CNN1 (11734310_a_at) / Fold change /veh CNN1 (11734310_a_at) / RFU VPS37D (11726825_at) / Fold change /veh VPS37D (11726825_at) / RFU C10orf10 (11716522_x_at) / Fold change /veh C10orf10 (11716522_x_at) / RFU KIR2DL2 /// KIR2DL4 /// KIR2DL5A /// KIR2DL5B /// KIR2DS1 /// KIR2DS2 /// KIR2DS3 /// KIR2DS4 /// KIR3DL3 /// KIR3DL3 /// KIR3DS1 (11738374_at) / Fold change /veh KIR2DL2 /// KIR2DL4 /// KIR2DL5A /// KIR2DL5B /// KIR2DS1 /// KIR2DS2 /// KIR2DS3 /// KIR2DS4 /// KIR3DL3 /// KIR3DL3 /// KIR3DS1 (11738374_at) / RFU C1QL1 (11718748_at) / Fold change /veh C1QL1 (11718748_at) / RFU TMPRSS4 (11747572_a_at) / Fold change /veh TMPRSS4 (11747572_a_at) / RFU HAMP (11756126_x_at) / Fold change /veh HAMP (11756126_x_at) / RFU RNFT2 (11725882_a_at) / Fold change /veh RNFT2 (11725882_a_at) / RFU NR4A2 (11747474_a_at) / Fold change /veh NR4A2 (11747474_a_at) / RFU ABCC12 (11746883_a_at) / Fold change /veh ABCC12 (11746883_a_at) / RFU TMEM136 (11760407_x_at) / Fold change /veh TMEM136 (11760407_x_at) / RFU CLDN22 /// WWC2 (11732394_at) / Fold change /veh CLDN22 /// WWC2 (11732394_at) / RFU HLA-DPB1 (11760878_x_at) / Fold change /veh HLA-DPB1 (11760878_x_at) / RFU SPINT1 (11716480_a_at) / Fold change /veh SPINT1 (11716480_a_at) / RFU GAP43 (11754022_s_at) / Fold change /veh GAP43 (11754022_s_at) / RFU A4GNT (11735810_at) / Fold change /veh A4GNT (11735810_at) / RFU PRB3 (11715151_x_at) / Fold change /veh PRB3 (11715151_x_at) / RFU TUBB4B (11761932_at) / Fold change /veh TUBB4B (11761932_at) / RFU CAPN14 (11732068_a_at) / Fold change /veh CAPN14 (11732068_a_at) / RFU TMCC2 (11721928_a_at) / Fold change /veh TMCC2 (11721928_a_at) / RFU IRGQ (11745062_a_at) / Fold change /veh IRGQ (11745062_a_at) / RFU FAM174B (11720279_a_at) / Fold change /veh FAM174B (11720279_a_at) / RFU TMPRSS4 (11748680_a_at) / Fold change /veh TMPRSS4 (11748680_a_at) / RFU FAM212B (11763350_a_at) / Fold change /veh FAM212B (11763350_a_at) / RFU PLEKHG5 (11743358_a_at) / Fold change /veh PLEKHG5 (11743358_a_at) / RFU ZSCAN30 (11745921_a_at) / Fold change /veh ZSCAN30 (11745921_a_at) / RFU CMKLR1 (11741424_a_at) / Fold change /veh CMKLR1 (11741424_a_at) / RFU LOC101060620 /// MAPK8IP1 (11723275_at) / Fold change /veh LOC101060620 /// MAPK8IP1 (11723275_at) / RFU SPTSSB (11747773_x_at) / Fold change /veh SPTSSB (11747773_x_at) / RFU PRSS12 (11739890_at) / Fold change /veh PRSS12 (11739890_at) / RFU BIN1 (11741810_x_at) / Fold change /veh BIN1 (11741810_x_at) / RFU WNT11 (11732464_a_at) / Fold change /veh WNT11 (11732464_a_at) / RFU C10orf10 (11716521_a_at) / Fold change /veh C10orf10 (11716521_a_at) / RFU C5orf56 (11738089_at) / Fold change /veh C5orf56 (11738089_at) / RFU CYB561 (11721691_x_at) / Fold change /veh CYB561 (11721691_x_at) / RFU ANKRD19P (11752326_a_at) / Fold change /veh ANKRD19P (11752326_a_at) / RFU OR2T12 /// OR2T33 /// OR2T8 (11738714_s_at) / Fold change /veh OR2T12 /// OR2T33 /// OR2T8 (11738714_s_at) / RFU VCAN (11748164_a_at) / Fold change /veh VCAN (11748164_a_at) / RFU JSRP1 (11732532_at) / Fold change /veh JSRP1 (11732532_at) / RFU KRTAP10-11 (11738290_x_at) / Fold change /veh KRTAP10-11 (11738290_x_at) / RFU MYO3A (11730013_a_at) / Fold change /veh MYO3A (11730013_a_at) / RFU EBF3 (11725865_a_at) / Fold change /veh EBF3 (11725865_a_at) / RFU CAMK2N1 (11719241_x_at) / Fold change /veh CAMK2N1 (11719241_x_at) / RFU C5orf56 (11738088_a_at) / Fold change /veh C5orf56 (11738088_a_at) / RFU OLFML3 (11715873_a_at) / Fold change /veh OLFML3 (11715873_a_at) / RFU LOC100653217 /// NTM (11731650_a_at) / Fold change /veh LOC100653217 /// NTM (11731650_a_at) / RFU MAPK11 (11762145_a_at) / Fold change /veh MAPK11 (11762145_a_at) / RFU FIZ1 (11724087_x_at) / Fold change /veh FIZ1 (11724087_x_at) / RFU OASL (11726364_x_at) / Fold change /veh OASL (11726364_x_at) / RFU SOX15 (11748057_x_at) / Fold change /veh SOX15 (11748057_x_at) / RFU CD79A (11719716_a_at) / Fold change /veh CD79A (11719716_a_at) / RFU HIST1H1D (11736915_at) / Fold change /veh HIST1H1D (11736915_at) / RFU CASKIN2 (11723855_a_at) / Fold change /veh CASKIN2 (11723855_a_at) / RFU LOC730098 (11760151_x_at) / Fold change /veh LOC730098 (11760151_x_at) / RFU OR4N2 (11742367_at) / Fold change /veh OR4N2 (11742367_at) / RFU PRRT2 (11749266_a_at) / Fold change /veh PRRT2 (11749266_a_at) / RFU SNX32 (11753110_a_at) / Fold change /veh SNX32 (11753110_a_at) / RFU CDHR5 (11726645_a_at) / Fold change /veh CDHR5 (11726645_a_at) / RFU RCAN1 (11760418_a_at) / Fold change /veh RCAN1 (11760418_a_at) / RFU FAM167A (11723789_a_at) / Fold change /veh FAM167A (11723789_a_at) / RFU FAM26E (11764081_at) / Fold change /veh FAM26E (11764081_at) / RFU ISYNA1 (11749810_s_at) / Fold change /veh ISYNA1 (11749810_s_at) / RFU ACY1 (11761880_at) / Fold change /veh ACY1 (11761880_at) / RFU 11764098_at / Fold change /veh 11764098_at / RFU SAMD14 (11745864_x_at) / Fold change /veh SAMD14 (11745864_x_at) / RFU NPB (11741838_a_at) / Fold change /veh NPB (11741838_a_at) / RFU TMPRSS6 (11731388_a_at) / Fold change /veh TMPRSS6 (11731388_a_at) / RFU KRTAP10-2 (11738614_at) / Fold change /veh KRTAP10-2 (11738614_at) / RFU ARHGAP8 /// PRR5-ARHGAP8 (11727945_x_at) / Fold change /veh ARHGAP8 /// PRR5-ARHGAP8 (11727945_x_at) / RFU KRTAP5-7 /// NADSYN1 (11734609_at) / Fold change /veh KRTAP5-7 /// NADSYN1 (11734609_at) / RFU RASL12 (11751679_a_at) / Fold change /veh RASL12 (11751679_a_at) / RFU CDKN2B (11736163_a_at) / Fold change /veh CDKN2B (11736163_a_at) / RFU PRF1 (11729649_at) / Fold change /veh PRF1 (11729649_at) / RFU, ZNF638 /// ZNF638-IT1 / Fold change vs veh, ZNF638 /// ZNF638-IT1 / RFU, PANK3 / Fold change vs veh, PANK3 / RFU, SH3YL1 / Fold change vs veh, SH3YL1 / RFU, ZEB2 / Fold change vs veh, ZEB2 / RFU, NRIP1 / Fold change vs veh, NRIP1 / RFU, PTTG1IP / Fold change vs veh, PTTG1IP / RFU, CAPN2 / Fold change vs veh, CAPN2 / RFU, MED14 / Fold change vs veh, MED14 / RFU, SNORA58 / Fold change vs veh, SNORA58 / RFU, C1orf63 / Fold change vs veh, C1orf63 / RFU, LRRFIP1 / Fold change vs veh, LRRFIP1 / RFU, NDUFAF7 / Fold change vs veh, NDUFAF7 / RFU, SLC12A2 / Fold change vs veh, SLC12A2 / RFU, IBTK / Fold change vs veh, IBTK / RFU, ESF1 / Fold change vs veh, ESF1 / Fold change vs veh, TMEM50B / RFU, TAOK1 / Fold change vs veh, TAOK1 / RFU, ACBD3 / Fold change vs veh, ACBD3 / RFU, TMA16 / Fold change vs veh, TMA16 / RFU, RWDD3 / Fold change vs veh, RWDD3 / RFU, BCAT1 / Fold change vs veh, BCAT1 / RFU, EDEM3 / Fold change vs veh, EDEM3 / RFU, TMEM33 / Fold change vs veh, TMEM33 / RFU, WDR75 / Fold change vs veh, WDR75 / RFU, AHCTF1 / Fold change vs veh, AHCTF1 / RFU, TFRC / Fold change vs veh, TFRC / RFU, ZDHHC17 / Fold change vs veh, ZDHHC17 / RFU, NOM1 / Fold change vs veh, NOM1 / RFU, ARL8B / Fold change vs veh, ARL8B / RFU, ZBTB11 / Fold change vs veh, ZBTB11 / RFU, TAMM41 / Fold change vs veh, TAMM41 / RFU, KIAA1704 /// LOC100996395 / Fold change vs veh, KIAA1704 /// LOC100996395 / RFU, ING1 / Fold change vs veh, ING1 / RFU, TRMT61B / Fold change vs veh, TRMT61B / RFU, FUBP3 / Fold change vs veh, FUBP3 / RFU, TP53 / Fold change vs veh, TP53 / RFU, TNKS2 / Fold change vs veh, TNKS2 / RFU, ZFP14 / Fold change vs veh, ZFP14 / RFU, ACTR2 / Fold change vs veh, ACTR2 / RFU, PPP3R1 / Fold change vs veh, PPP3R1 / RFU, PIK3R1 / Fold change vs veh, PIK3R1 / RFU, HNRNPA1 / Fold change vs veh, HNRNPA1 / RFU, RNF170 / Fold change vs veh, RNF170 / RFU, ZNF28 / Fold change vs veh, ZNF28 / RFU, RNGTT / Fold change vs veh, RNGTT / RFU, OGT / Fold change vs veh, OGT / RFU, BRD1 / Fold change vs veh, BRD1 / RFU, MARS / Fold change vs veh, MARS / RFU, ZNF655 / Fold change vs veh, ZNF655 / RFU, FAHD1 / Fold change vs veh, FAHD1 / RFU, BDP1 / Fold change vs veh, BDP1 / RFU, LRRCC1 / Fold change vs veh, LRRCC1 / RFU, ARID1A / Fold change vs veh, ARID1A / RFU, ZNF146 / Fold change vs veh, ZNF146 / RFU, ZNF330 / Fold change vs veh, ZNF330 / RFU, GPN3 / Fold change vs veh, GPN3 / RFU, C9orf123 / Fold change vs veh, C9orf123 / RFU, N4BP2L2 / Fold change vs veh, N4BP2L2 / RFU, ARFIP1 / Fold change vs veh, ARFIP1 / RFU, FAM179B / Fold change vs veh, FAM179B / RFU, BCL10 / Fold change vs veh, BCL10 / RFU, UHRF1BP1L / Fold change vs veh, UHRF1BP1L / RFU, BET1 / Fold change vs veh, BET1 / RFU, CNOT2 / Fold change vs veh, CNOT2 / RFU, ZNF268 / Fold change vs veh, ZNF268 / Fold change vs veh, ZNF507 / RFU, DGCR2 / Fold change vs veh, DGCR2 / RFU, WDSUB1 / Fold change vs veh, WDSUB1 / Fold change vs veh, HSP90B1 /// MIR3652 / RFU, ADSS / Fold change vs veh, ADSS / RFU, GK / Fold change vs veh, GK / RFU, ZNF148 / Fold change vs veh, ZNF148 / RFU, TAF9 / Fold change vs veh, TAF9 / RFU, SLC1A5 / Fold change vs veh, SLC1A5 / RFU, SLMO2 / Fold change vs veh, SLMO2 / RFU, ABCC4 / Fold change vs veh, ABCC4 / RFU, LOC101060439 /// RAP1B / Fold change vs veh, LOC101060439 /// RAP1B / RFU, RFX7 / Fold change vs veh, RFX7 / RFU, GTPBP10 / Fold change vs veh, GTPBP10 / RFU, CNEP1R1 / Fold change vs veh, CNEP1R1 / RFU, BIVM-ERCC5 /// ERCC5 / Fold change vs veh, BIVM-ERCC5 /// ERCC5 / RFU, ILF3 / Fold change vs veh, ILF3 / RFU 11762660_at / Fold change /veh 11762660_at / RFU VCAN (11757783_s_at) / Fold change /veh VCAN (11757783_s_at) / RFU DDX43 (11728927_at) / Fold change /veh DDX43 (11728927_at) / RFU KRT8 (11758188_x_at) / Fold change /veh KRT8 (11758188_x_at) / RFU NKD1 (11759106_at) / Fold change /veh NKD1 (11759106_at) / RFU SRD5A1 (11742802_a_at) / Fold change /veh SRD5A1 (11742802_a_at) / RFU TPSAB1 /// TPSB2 (11721975_s_at) / Fold change /veh TPSAB1 /// TPSB2 (11721975_s_at) / RFU GSTM3 (11746129_a_at) / Fold change /veh GSTM3 (11746129_a_at) / RFU IL23R (11737362_x_at) / Fold change /veh IL23R (11737362_x_at) / RFU TMEM51 (11727254_a_at) / Fold change /veh TMEM51 (11727254_a_at) / RFU PIWIL2 (11732686_x_at) / Fold change /veh PIWIL2 (11732686_x_at) / RFU ORM1 (11744905_x_at) / Fold change /veh ORM1 (11744905_x_at) / RFU CCDC152 (11743942_at) / Fold change /veh CCDC152 (11743942_at) / RFU ECM1 (11717891_a_at) / Fold change /veh ECM1 (11717891_a_at) / RFU IL23R (11748794_a_at) / Fold change /veh IL23R (11748794_a_at) / RFU TNFAIP8L3 (11732012_x_at) / Fold change /veh TNFAIP8L3 (11732012_x_at) / RFU MBOAT4 (11741988_at) / Fold change /veh MBOAT4 (11741988_at) / RFU 11764193_at / Fold change /veh 11764193_at / RFU TMEM53 (11763286_at) / Fold change /veh TMEM53 (11763286_at) / RFU MAGEB2 (11727129_at) / Fold change /veh MAGEB2 (11727129_at) / RFU TMEM200A (11744735_a_at) / Fold change /veh TMEM200A (11744735_a_at) / RFU CCDC152 (11751479_a_at) / Fold change /veh CCDC152 (11751479_a_at) / RFU FAM211A (11726209_a_at) / Fold change /veh FAM211A (11726209_a_at) / RFU RGS16 (11746705_a_at) / Fold change /veh RGS16 (11746705_a_at) / RFU VCAN (11755009_s_at) / Fold change /veh VCAN (11755009_s_at) / RFU RHOB (11743442_s_at) / Fold change /veh RHOB (11743442_s_at) / RFU RGS16 (11720943_a_at) / Fold change /veh RGS16 (11720943_a_at) / RFU RGS16 (11720944_at) / Fold change /veh RGS16 (11720944_at) / RFU, VPS4B / Fold change vs veh, VPS4B / RFU, CREB1 / Fold change vs veh, CREB1 / RFU, DNAJC13 / Fold change vs veh, DNAJC13 / RFU, GNAQ / Fold change vs veh, GNAQ / RFU, CDK5R1 / Fold change vs veh, CDK5R1 / RFU, ZRANB3 / Fold change vs veh, ZRANB3 / RFU, CUL4A / Fold change vs veh, CUL4A / RFU, CCNY / Fold change vs veh, CCNY / RFU, UFL1 / Fold change vs veh, UFL1 / RFU, COG3 / Fold change vs veh, COG3 / RFU, DIAPH2 / Fold change vs veh, DIAPH2 / RFU, SKA2 / Fold change vs veh, SKA2 / RFU, AFF3 / Fold change vs veh, AFF3 / RFU, LMF1 / Fold change vs veh, LMF1 / RFU, IPO11 / Fold change vs veh, IPO11 / RFU, DFFB / Fold change vs veh, DFFB / RFU, FOXP1 / Fold change vs veh, FOXP1 / RFU, CARD8 / Fold change vs veh, CARD8 / RFU, STRN3 / Fold change vs veh, STRN3 / RFU, ADK / Fold change vs veh, ADK / RFU, RASSF2 / Fold change vs veh, RASSF2 / RFU, WIPF1 / Fold change vs veh, WIPF1 / RFU, LARP1B / Fold change vs veh, LARP1B / RFU, RASA1 / Fold change vs veh, RASA1 / RFU, RB1 / Fold change vs veh, RB1 / RFU, PPFIA1 / Fold change vs veh, PPFIA1 / RFU, MAT2A / Fold change vs veh, MAT2A / RFU, CCT5 / Fold change vs veh, CCT5 / RFU, WDR92 / Fold change vs veh, WDR92 / RFU, CUX1 / Fold change vs veh, CUX1 / RFU, TTC7A / Fold change vs veh, TTC7A / RFU, TMEM135 / Fold change vs veh, TMEM135 / RFU, DEPTOR / Fold change vs veh, DEPTOR / RFU, CPM / Fold change vs veh, CPM / RFU, DNAJB6 / Fold change vs veh, DNAJB6 / RFU, CACNA2D3 / Fold change vs veh, CACNA2D3 / RFU, DTX4 / Fold change vs veh, DTX4 / RFU, TFCP2 / Fold change vs veh, TFCP2 / RFU, GMCL1 /// GMCL1P1 / Fold change vs veh, GMCL1 /// GMCL1P1 / RFU, AEBP2 / Fold change vs veh, AEBP2 / RFU, SNHG1 /// SNORD22 /// SNORD25 /// SNORD26 /// SNORD27 /// SNORD28 /// SNORD29 /// SNORD31 / Fold change vs veh, SNHG1 /// SNORD22 /// SNORD25 /// SNORD26 /// SNORD27 /// SNORD28 /// SNORD29 /// SNORD31 / Fold change (Aza/veh), C12orf56 (ProbeSet 11735607_a_at) / Fold change (ACY-1035/veh), C12orf56 (ProbeSet 11735607_a_at) / Fold change (Aza/veh), FGFR1OP (ProbeSet 11751329_s_at) / Fold change (ACY-1035/veh), FGFR1OP (ProbeSet 11751329_s_at) / Fold change (Aza/veh), VPS36 (ProbeSet 11739960_a_at) / Fold change (ACY-1035/veh), VPS36 (ProbeSet 11739960_a_at) / RFU SYPL1 (11715823_x_at) / Fold change /veh SYPL1 (11715823_x_at) / RFU IGFBP7 (11715501_s_at) / Fold change /veh IGFBP7 (11715501_s_at) / RFU REEP3 (11722064_at) / Fold change /veh REEP3 (11722064_at) / RFU IGLL1 (11728026_x_at) / Fold change /veh IGLL1 (11728026_x_at): dose or concentration left out as unconfirmed
Settings: MV-4-11 cells, 48 hours

Nc1ccc(-c2cccs2)cc1NC(=O)c1ccc2c(c1)cc(C1CC1)n2CCN1CCOCC1 [ACY-1035]
RFU CDHR5 (11726645_a_at): 42.85 RFU
